For experiment [1], the target named is Polyadenylate-binding protein 1 (Homo sapiens, UniProt P11940). As to the kind of experiment: PABP1 MLLE–PAM2 binding inhibitor potency, dose response, biochemical, fluorescence polarization, FITC-PAM2 peptide (AID 602259). The note with it: read-out: IC50_Mean. Type of experiment: functional. Background: Polarisation of emitted light reports the rotation of a fluorescent probe.

For experiment [2], the target named is T1, Histone-lysine N-methyltransferase NSD2 (Homo sapiens, UniProt O96028).
T1 sequence (O96028 whole entry): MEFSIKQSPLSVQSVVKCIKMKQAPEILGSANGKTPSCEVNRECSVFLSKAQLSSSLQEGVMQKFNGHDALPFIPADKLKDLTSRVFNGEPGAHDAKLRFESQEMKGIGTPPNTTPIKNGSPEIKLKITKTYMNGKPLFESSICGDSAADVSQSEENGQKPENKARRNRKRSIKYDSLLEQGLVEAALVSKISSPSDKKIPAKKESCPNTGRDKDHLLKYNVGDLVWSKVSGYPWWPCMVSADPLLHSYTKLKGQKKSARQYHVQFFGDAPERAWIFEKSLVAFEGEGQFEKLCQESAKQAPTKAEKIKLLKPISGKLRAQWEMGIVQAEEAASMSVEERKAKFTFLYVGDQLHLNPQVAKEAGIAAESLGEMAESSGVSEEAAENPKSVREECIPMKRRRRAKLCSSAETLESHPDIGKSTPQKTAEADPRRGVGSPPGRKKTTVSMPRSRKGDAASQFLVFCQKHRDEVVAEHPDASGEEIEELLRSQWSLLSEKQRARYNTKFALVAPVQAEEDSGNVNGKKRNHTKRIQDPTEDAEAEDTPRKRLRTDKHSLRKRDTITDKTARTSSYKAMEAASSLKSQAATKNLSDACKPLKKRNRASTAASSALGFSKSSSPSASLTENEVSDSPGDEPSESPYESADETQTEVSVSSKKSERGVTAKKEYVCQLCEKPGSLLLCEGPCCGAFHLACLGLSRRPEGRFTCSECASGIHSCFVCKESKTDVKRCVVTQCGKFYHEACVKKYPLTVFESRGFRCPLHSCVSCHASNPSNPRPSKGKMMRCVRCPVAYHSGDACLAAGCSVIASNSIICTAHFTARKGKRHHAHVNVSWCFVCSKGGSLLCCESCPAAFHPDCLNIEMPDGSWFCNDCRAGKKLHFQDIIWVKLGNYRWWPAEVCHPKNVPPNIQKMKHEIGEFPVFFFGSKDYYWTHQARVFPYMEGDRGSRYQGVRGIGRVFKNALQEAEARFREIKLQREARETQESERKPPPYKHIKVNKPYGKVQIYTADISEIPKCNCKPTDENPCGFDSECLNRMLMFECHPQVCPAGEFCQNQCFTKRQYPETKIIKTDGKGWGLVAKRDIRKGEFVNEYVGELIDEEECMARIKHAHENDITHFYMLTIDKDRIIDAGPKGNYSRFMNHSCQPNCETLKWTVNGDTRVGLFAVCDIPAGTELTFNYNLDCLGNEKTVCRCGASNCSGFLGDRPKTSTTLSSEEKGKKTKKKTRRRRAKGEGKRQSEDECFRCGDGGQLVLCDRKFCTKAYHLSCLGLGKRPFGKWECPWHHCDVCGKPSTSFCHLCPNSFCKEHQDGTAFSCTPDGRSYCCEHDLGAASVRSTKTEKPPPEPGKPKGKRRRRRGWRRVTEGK
The format is biochemical.

The target in experiment [3] is T2, Neuropeptide Y receptor type 1 (Homo sapiens, UniProt P25929).
T2 sequence (P25929 whole entry): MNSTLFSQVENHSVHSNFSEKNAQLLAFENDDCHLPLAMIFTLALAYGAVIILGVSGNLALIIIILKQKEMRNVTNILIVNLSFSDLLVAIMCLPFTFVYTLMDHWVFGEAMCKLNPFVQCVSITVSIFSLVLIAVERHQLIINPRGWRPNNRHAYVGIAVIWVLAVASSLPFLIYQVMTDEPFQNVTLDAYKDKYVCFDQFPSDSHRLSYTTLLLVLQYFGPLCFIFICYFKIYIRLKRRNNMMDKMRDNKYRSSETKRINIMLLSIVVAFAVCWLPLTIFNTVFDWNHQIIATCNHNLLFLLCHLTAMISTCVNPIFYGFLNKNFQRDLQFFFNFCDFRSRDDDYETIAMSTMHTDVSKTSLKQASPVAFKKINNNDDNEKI
In words: Fluorescence-based counterscreen for agonists of NPY-Y2: cell-based high-throughput dose response assay for agonists of NPY-Y1. Type of experiment: functional. In general terms: The purpose of a counterscreen is to sort out artefacts and off-target activity.

Experiment [4] addresses Heat shock protein HSP 90-alpha (Homo sapiens, UniProt P07900). The format is functional, organism-based.
For another experiment, the system named is HEK293. In words: NOD1 signaling inhibitors, primary screen, cell-based, luminescence, uHTS (AID 1578). Type of experiment: functional. The note with it: Homo sapiens.
A short description of experiment [5]: Luminescence Cell-Based/Microorganism Confirmation at Dose of Inhibitors of Trypanosoma cruzi Infection. [Related pubchem assays: 1885, 1968 ]. Type of experiment: functional.
Experiment [6] can be described thus: inhibitors of Trypanosoma cruzi host-cell infection, confirmation, beta-gal luminescence, NIH3T3 host cells (AID 2630). The format is functional, cell-based. The following applies: Mus musculus.
Another experiment addresses Fatty acid synthase (Homo sapiens, UniProt P49327). As to the kind of experiment: FAS thioesterase domain inhibitors, dose response, biochemical, endpoint fluorescence intensity, uHTS hits (AID 624327).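 Note: fluorescence from hydrolysis of an O-methyl fluorescein acyl ester substrate by the enzyme.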 The format is functional.
In experiment [7] the target is T3, Rac GTPase-activating protein 1 (Homo sapiens, UniProt Q9H0H5).
T3 sequence (Q9H0H5 whole entry): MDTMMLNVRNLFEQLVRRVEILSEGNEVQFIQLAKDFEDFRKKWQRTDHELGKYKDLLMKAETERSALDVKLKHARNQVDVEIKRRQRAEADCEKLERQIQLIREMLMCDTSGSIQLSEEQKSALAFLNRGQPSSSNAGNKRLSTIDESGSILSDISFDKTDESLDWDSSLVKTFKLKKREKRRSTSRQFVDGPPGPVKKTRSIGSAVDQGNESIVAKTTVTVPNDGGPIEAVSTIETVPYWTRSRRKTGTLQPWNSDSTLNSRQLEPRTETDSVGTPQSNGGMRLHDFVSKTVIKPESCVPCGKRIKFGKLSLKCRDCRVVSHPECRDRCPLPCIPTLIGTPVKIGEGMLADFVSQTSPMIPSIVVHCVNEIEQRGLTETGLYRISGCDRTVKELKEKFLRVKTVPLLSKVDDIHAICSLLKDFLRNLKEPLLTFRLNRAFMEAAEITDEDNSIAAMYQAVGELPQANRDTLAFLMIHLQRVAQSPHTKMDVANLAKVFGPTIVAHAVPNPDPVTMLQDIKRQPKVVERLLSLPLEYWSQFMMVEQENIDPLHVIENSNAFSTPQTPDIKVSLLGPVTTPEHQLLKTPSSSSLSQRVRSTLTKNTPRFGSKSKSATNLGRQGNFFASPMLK
As to the kind of experiment: MgcRacGAP GTPase-activating activity inhibitors, confirmation, biochemical, ADP Hunter fluorescence, primary and confirmatory (AID 624330). Type of experiment: functional.

Active and inactive are the calls of the source.

As a reminder, the AC50 is the midpoint of the concentration-response curve, whichever way the signal moves. As a reminder, the EC50 is the concentration needed to bring the measured effect to its halfway point.

Chain of Fatty acid synthase (P49327 whole entry, the tested form may be a part): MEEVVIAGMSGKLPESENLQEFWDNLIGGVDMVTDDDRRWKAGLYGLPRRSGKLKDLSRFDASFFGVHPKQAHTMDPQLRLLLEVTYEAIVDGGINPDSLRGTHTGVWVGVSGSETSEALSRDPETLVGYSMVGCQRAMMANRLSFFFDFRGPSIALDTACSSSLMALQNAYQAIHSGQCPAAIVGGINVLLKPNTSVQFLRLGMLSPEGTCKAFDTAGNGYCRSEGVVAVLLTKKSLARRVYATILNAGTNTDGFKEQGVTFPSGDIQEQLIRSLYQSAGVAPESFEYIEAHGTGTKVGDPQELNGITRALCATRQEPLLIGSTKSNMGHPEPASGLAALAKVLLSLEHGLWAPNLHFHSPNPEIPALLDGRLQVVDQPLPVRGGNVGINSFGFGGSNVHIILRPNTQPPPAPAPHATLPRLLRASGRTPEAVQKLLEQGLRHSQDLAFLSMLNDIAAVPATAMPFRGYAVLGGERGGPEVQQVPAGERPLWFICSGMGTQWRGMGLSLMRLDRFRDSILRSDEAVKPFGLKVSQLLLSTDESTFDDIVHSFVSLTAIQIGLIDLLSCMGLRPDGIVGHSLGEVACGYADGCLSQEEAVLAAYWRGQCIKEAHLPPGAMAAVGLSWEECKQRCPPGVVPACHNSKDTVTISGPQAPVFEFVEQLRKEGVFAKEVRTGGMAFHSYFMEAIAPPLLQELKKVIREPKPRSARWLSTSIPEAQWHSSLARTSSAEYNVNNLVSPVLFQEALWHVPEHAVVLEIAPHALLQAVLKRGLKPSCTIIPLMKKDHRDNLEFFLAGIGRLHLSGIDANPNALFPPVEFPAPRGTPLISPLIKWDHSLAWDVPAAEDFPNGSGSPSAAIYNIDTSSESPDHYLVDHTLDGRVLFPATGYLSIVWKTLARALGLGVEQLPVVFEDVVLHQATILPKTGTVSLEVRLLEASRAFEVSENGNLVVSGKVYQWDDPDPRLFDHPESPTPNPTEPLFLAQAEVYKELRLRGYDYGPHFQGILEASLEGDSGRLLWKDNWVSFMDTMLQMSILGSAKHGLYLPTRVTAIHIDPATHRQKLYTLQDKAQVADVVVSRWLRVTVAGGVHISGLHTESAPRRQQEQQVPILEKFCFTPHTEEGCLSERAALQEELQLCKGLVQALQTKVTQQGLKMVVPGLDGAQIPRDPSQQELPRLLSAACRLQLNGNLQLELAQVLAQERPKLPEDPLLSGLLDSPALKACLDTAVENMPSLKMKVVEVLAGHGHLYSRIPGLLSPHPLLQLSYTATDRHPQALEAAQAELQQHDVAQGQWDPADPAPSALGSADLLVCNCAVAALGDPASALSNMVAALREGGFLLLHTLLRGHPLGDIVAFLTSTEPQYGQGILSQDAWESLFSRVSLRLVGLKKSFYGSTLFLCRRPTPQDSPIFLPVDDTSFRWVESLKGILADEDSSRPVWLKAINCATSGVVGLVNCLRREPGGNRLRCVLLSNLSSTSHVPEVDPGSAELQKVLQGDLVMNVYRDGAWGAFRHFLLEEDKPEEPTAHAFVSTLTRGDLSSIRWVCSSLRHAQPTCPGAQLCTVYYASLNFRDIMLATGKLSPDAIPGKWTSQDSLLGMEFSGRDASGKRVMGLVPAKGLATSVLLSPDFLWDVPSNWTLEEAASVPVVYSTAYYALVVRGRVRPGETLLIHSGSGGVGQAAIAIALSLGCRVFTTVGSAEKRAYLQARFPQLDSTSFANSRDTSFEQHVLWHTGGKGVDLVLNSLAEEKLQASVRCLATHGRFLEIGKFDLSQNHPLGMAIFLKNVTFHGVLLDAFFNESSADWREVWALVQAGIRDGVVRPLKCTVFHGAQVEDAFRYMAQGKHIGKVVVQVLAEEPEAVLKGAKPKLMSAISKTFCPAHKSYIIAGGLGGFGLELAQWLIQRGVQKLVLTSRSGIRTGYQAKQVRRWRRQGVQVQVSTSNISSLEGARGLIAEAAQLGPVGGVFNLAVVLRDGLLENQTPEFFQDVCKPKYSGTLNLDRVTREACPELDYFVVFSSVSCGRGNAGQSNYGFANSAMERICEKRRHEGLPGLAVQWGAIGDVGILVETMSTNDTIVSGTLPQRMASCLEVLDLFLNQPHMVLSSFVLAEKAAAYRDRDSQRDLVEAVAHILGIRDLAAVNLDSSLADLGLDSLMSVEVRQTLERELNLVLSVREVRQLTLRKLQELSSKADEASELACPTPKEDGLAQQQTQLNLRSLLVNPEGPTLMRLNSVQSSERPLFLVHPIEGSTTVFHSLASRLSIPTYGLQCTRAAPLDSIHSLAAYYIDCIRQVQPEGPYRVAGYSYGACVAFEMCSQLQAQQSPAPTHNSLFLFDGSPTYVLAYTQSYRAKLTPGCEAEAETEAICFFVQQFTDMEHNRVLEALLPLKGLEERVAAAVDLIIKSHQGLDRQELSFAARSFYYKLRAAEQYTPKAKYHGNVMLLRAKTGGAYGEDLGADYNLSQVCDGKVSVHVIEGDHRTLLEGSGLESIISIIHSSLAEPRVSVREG
Chain of Polyadenylate-binding protein 1 (P11940 whole entry): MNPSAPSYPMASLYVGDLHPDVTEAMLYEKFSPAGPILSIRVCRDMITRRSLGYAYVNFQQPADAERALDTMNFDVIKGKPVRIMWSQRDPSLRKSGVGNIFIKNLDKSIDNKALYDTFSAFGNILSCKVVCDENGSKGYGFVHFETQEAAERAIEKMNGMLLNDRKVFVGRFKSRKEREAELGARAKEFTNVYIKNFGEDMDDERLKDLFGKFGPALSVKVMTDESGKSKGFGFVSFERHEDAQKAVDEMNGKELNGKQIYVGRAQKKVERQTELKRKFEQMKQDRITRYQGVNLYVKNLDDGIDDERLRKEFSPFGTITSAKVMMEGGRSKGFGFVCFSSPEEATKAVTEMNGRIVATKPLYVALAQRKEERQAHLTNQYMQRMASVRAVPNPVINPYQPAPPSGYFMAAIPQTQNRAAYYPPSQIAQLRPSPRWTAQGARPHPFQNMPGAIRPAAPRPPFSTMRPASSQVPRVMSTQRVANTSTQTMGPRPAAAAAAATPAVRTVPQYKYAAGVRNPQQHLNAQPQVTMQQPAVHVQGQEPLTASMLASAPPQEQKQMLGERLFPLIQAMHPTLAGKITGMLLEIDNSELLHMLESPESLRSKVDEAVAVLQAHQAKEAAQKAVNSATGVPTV

Regarding `O=C(O)CSc1cc(NS(=O)(=O)c2ccc(Br)cc2)c2ccccc2c1O`, the IC50 in [1] was > 66 µM (inactive). Further, the AC50 in experiment [2] was 1.65 µM (active).

With `O=C(CC(O)(C(F)(F)F)C(F)(F)F)Nc1ccc(Cl)c(Cl)c1`, in experiment [3], the EC50 is listed as 16.5 µM (not active). Moreover, the AC50 in experiment [4] was 16.8 µM (active).

As for `O=C(CNc1cccc2ccccc12)N/N=C/c1ccc([N+](=O)[O-])o1`, the EC50 with HEK293 was 3.28 µM (active); in [5], 0.022 µM (active); in experiment [6] it was 0.022 µM (active).

Regarding `Cc1ccc(NC(=O)C2=C(c3ccccc3)S(=O)(=O)CCS2(=O)=O)cc1`, the figures for the IC50 (at Fatty acid synthase; in experiment [7]) were 3.96 µM (active) and 97.4 µM (active), respectively.
